Test results: PubChem BioAssay AID248 (DTP/NCI, 2004)
Values joined by “and” are separate entries in the source; they are usually repeats but may differ in a detail not shown here. Identical values can stand only once. Toxic doses and inconclusive results are not listed. No stated cut-off is given here; in the data, active means T/C of 150% or more; inactive means T/C below 125%.

Test system: L1210 leukemia ip in BDF1 mice, survival T/C
Test: NCI In Vivo Anticancer Drug Screen. Data for tumor model L1210 Leukemia (intraperitoneal) in B6D2F1 (BDF1) mice
Settings: endpoint: mean survival time, higher = longer survival
In short: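 In this screen, tumor-bearing mice given compound are compared to those given vehicle, and their survival values are reported as a treated-to-control quotient.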

[1] = dose: 100.0 mg/kg/injection, schedule: Q01DX009 (ip), vehicle: Klucel (hydroxypropylcellulose) (HPC)
[2] = dose: 200.0 mg/kg/injection, schedule: Q01DX001 (ip), vehicle: saline
[3] = dose: 200.0 mg/kg/injection, schedule: Q01DX009 (ip), vehicle: Klucel (hydroxypropylcellulose) (HPC)
[4] = dose: 400.0 mg/kg/injection, schedule: Q01DX009 (ip), vehicle: Klucel (hydroxypropylcellulose) (HPC)
[5] = dose: 100.0 mg/kg/injection, schedule: Q01DX009 (ip), vehicle: saline
[6] = dose: 200.0 mg/kg/injection, schedule: Q01DX009 (ip), vehicle: saline
[7] = dose: 400.0 mg/kg/injection, schedule: Q01DX009 (ip), vehicle: saline
[8] = dose: 100.0 mg/kg/injection, schedule: Q01DX001 (ip), vehicle: saline
[9] = dose: 400.0 mg/kg/injection, schedule: Q01DX001 (ip), vehicle: saline
[10] = dose: 100.0 mg/kg/injection, schedule: Q04DX002 (ip), vehicle: saline with Tween-80
[11] = dose: 200.0 mg/kg/injection, schedule: Q04DX002 (ip), vehicle: saline with Tween-80

Measured: T/C

CC1(C)OC2C(C(N)=O)OC(n3cnc4c(N)ncnc43)C2O1 (stereo unspecified)
inactive: dose: 100.0 mg/kg/injection, schedule: Q01DX005 (ip), vehicle: saline 104 % of control | dose: 200.0 mg/kg/injection, schedule: Q01DX005 (ip), vehicle: saline 102 % of control

Cc1ccc(S(=O)(=O)OCC2CO2)c(C)c1 (stereo unspecified)
inactive: dose: 50.0 mg/kg/injection, schedule: Q01DX007 (ip), vehicle: saline with Tween-80 106 % of control | dose: 100.0 mg/kg/injection, schedule: Q01DX007 (ip), vehicle: saline with Tween-80 103 % of control | dose: 200.0 mg/kg/injection, schedule: Q01DX007 (ip), vehicle: saline with Tween-80 94 % of control

NCCN1Cc2ccccc2CCc2ccccc2C1
inactive: dose: 25.0 mg/kg/injection, schedule: Q01DX009 (ip), vehicle: Klucel (hydroxypropylcellulose) (HPC) 111 % of control | dose: 50.0 mg/kg/injection, schedule: Q01DX009 (ip), vehicle: Klucel (hydroxypropylcellulose) (HPC) 105 % of control | [1] 93 % of control

CCCCNc1ncnc2c1cnn2C
inactive: dose: 31.25 mg/kg/injection, schedule: Q01DX010 (ip), vehicle: saline 94 % of control and 105 % of control | dose: 50.0 mg/kg/injection, schedule: Q01DX Z (ip), vehicle: saline 102 % of control | dose: 62.5 mg/kg/injection, schedule: Q01DX010 (ip), vehicle: saline 100 % of control | dose: 75.0 mg/kg/injection, schedule: Q01DX Z (ip), vehicle: saline 100 % of control | dose: 100.0 mg/kg/injection, schedule: Q01DX Z (ip), vehicle: saline 111 % of control | dose: 125.0 mg/kg/injection, schedule: Q01DX010 (ip), vehicle: saline 97 % of control and 113 % of control | [2] 98 % of control

CC/C=C(/C)CCC
inactive: dose: 100.0 mg/kg/injection, schedule: Q04DX003 (ip), vehicle: saline with Tween-80 93 % of control | dose: 200.0 mg/kg/injection, schedule: Q04DX003 (ip), vehicle: saline with Tween-80 93 % of control | dose: 400.0 mg/kg/injection, schedule: Q04DX003 (ip), vehicle: saline with Tween-80 98 % of control

N#CCCN(C(=S)Nc1ccc(Cl)c(Cl)c1)C1CCCCC1
inactive: [1] 107 % of control | [3] 113 % of control | [4] 103 % of control

CSCCC(NC(C)=O)C(=O)NNC(C)C (stereo unspecified)
inactive: dose: 25.0 mg/kg/injection, schedule: Q01DX009 (ip), vehicle: saline 101 % of control | dose: 50.0 mg/kg/injection, schedule: Q01DX009 (ip), vehicle: saline 92 % of control | [5] 92 % of control | [6] 95 % of control | [7] 93 % of control

CCOC(=O)NC1CCCCC1
inactive: dose: 100.0 mg/kg/injection, schedule: Q01DX001 (ip), vehicle: gum acacia 97 % of control | dose: 200.0 mg/kg/injection, schedule: Q01DX001 (ip), vehicle: gum acacia 97 % of control | dose: 400.0 mg/kg/injection, schedule: Q01DX001 (ip), vehicle: gum acacia 105 % of control

C=CC1CN2CCC1CC2C(=O)c1ccnc2ccc(OC)cc12 (stereo unspecified)
inactive: dose: 50.0 mg/kg/injection, schedule: Q01DX001 (ip), vehicle: saline 98 % of control | [8] 102 % of control | [2] 95 % of control | [9] 101 % of control

Cc1ccc(C(C)C)cc1NC(=O)Nc1ccccc1F
inactive: [1] 91 % of control | [3] 86 % of control

O=C(CCCCCCCCC(=O)OCc1ccccc1)OCc1ccccc1
inactive: dose: 100.0 mg/kg/injection, schedule: Q04DX002 (ip), vehicle: saline 96 % of control | dose: 200.0 mg/kg/injection, schedule: Q04DX002 (ip), vehicle: saline 88 % of control | dose: 400.0 mg/kg/injection, schedule: Q04DX002 (ip), vehicle: saline 100 % of control

O=C1CC(=O)N2C=CC=CC2=N1
inactive: [5] 101 % of control | [6] 95 % of control | [7] 92 % of control

CC(C)CNC(=O)c1cccc(-c2ccccc2C(=O)NCC(C)C)c1
inactive: dose: 100.0 mg/kg/injection, schedule: Q01DX001 (ip), vehicle: other 91 % of control | dose: 200.0 mg/kg/injection, schedule: Q01DX001 (ip), vehicle: other 93 % of control | dose: 400.0 mg/kg/injection, schedule: Q01DX001 (ip), vehicle: other 96 % of control

CCOC(=O)c1ccc(NC(=O)SCCSC(=O)Nc2ccc(C(=O)OCC)cc2)cc1
inactive: [1] 90 % of control | [3] 91 % of control | [4] 91 % of control

CNS(=O)(=O)c1ccc(NC(=O)CI)cc1
inactive: dose: 3.0 mg/kg/injection, schedule: Q01DX009 (ip), vehicle: Klucel (hydroxypropylcellulose) (HPC) 112 % of control | dose: 6.0 mg/kg/injection, schedule: Q01DX009 (ip), vehicle: Klucel (hydroxypropylcellulose) (HPC) 96 % of control | dose: 12.0 mg/kg/injection, schedule: Q01DX009 (ip), vehicle: Klucel (hydroxypropylcellulose) (HPC) 108 % of control | dose: 12.5 mg/kg/injection, schedule: Q01DX001 (ip), vehicle: other 96 % of control | dose: 12.5 mg/kg/injection, schedule: Q04DX003 (ip), vehicle: other 93 % of control | dose: 25.0 mg/kg/injection, schedule: Q01DX001 (ip), vehicle: other 96 % of control | dose: 50.0 mg/kg/injection, schedule: Q01DX001 (ip), vehicle: other 88 % of control

O=C1CC=C2C3CC4N(CCC45c4ccccc4N1C25)C/C3=C\CBr (stereo unspecified)
inactive: dose: 9.38 mg/kg/injection, schedule: Q01DX001 (ip), vehicle: other 100 % of control

Cc1ccc(C(=O)NC(N)=O)cc1
inactive: [1] 101 % of control | [3] 95 % of control

O=C(O)c1ccc([N+](=O)[O-])o1
inactive: dose: 100.0 mg/kg/injection, schedule: Q01DX009 (ip), vehicle: saline with Tween-80 89 % of control | dose: 100.0 mg/kg/injection, schedule: Q04DX003 (ip), vehicle: other 100 % of control | dose: 200.0 mg/kg/injection, schedule: Q01DX009 (ip), vehicle: saline with Tween-80 97 % of control | dose: 200.0 mg/kg/injection, schedule: Q04DX003 (ip), vehicle: other 96 % of control

O=C(O)c1c(-c2ccccc2)[nH]c2cc(Cl)ccc2c1=O
inactive: dose: 50.0 mg/kg/injection, schedule: Q01DX001 (ip), vehicle: carboxymethylcellulose (CMC) 113 % of control | dose: 100.0 mg/kg/injection, schedule: Q01DX001 (ip), vehicle: carboxymethylcellulose (CMC) 113 % of control | [1] 112 % of control | dose: 100.0 mg/kg/injection, schedule: Q04DX003 (ip), vehicle: Klucel (hydroxypropylcellulose) (HPC) 104 % of control | dose: 200.0 mg/kg/injection, schedule: Q01DX001 (ip), vehicle: carboxymethylcellulose (CMC) 107 % of control | [3] 106 % of control | dose: 200.0 mg/kg/injection, schedule: Q04DX003 (ip), vehicle: Klucel (hydroxypropylcellulose) (HPC) 107 % of control | dose: 400.0 mg/kg/injection, schedule: Q04DX003 (ip), vehicle: Klucel (hydroxypropylcellulose) (HPC) 104 % of control

Cc1scc[n+]1Cc1ccccc1[N+](=O)[O-]
inactive: dose: 5.0 mg/kg/injection, schedule: Q01DX001 (ip), vehicle: saline 109 % of control | dose: 10.0 mg/kg/injection, schedule: Q01DX001 (ip), vehicle: saline 109 % of control | dose: 20.0 mg/kg/injection, schedule: Q01DX001 (ip), vehicle: saline 105 % of control | dose: 40.0 mg/kg/injection, schedule: Q01DX001 (ip), vehicle: saline 109 % of control | dose: 80.0 mg/kg/injection, schedule: Q01DX001 (ip), vehicle: saline 100 % of control

CNS(=O)(=O)c1ccccc1C(O)(c1ccccc1)c1ccccc1
inactive: [8] 94 % of control | [2] 100 % of control | [9] 111 % of control

c1ccc(N=Nc2cccnn2)cc1
inactive: dose: 50.0 mg/kg/injection, schedule: Q04DX002 (ip), vehicle: saline with Tween-80 97 % of control | [10] 105 % of control | [11] 94 % of control

O=S(=O)(O)c1ccc(-c2ccc([As](=O)(O)O)cc2)cc1
inactive: [10] 95 % of control | [11] 103 % of control | dose: 400.0 mg/kg/injection, schedule: Q04DX002 (ip), vehicle: saline with Tween-80 87 % of control

Cc1ccc(C(=O)C=Nc2ccccc2C(=O)O)cc1
inactive: dose: 75.0 mg/kg/injection, schedule: Q04DX003 (ip), vehicle: Klucel (hydroxypropylcellulose) (HPC) 94 % of control | dose: 150.0 mg/kg/injection, schedule: Q04DX003 (ip), vehicle: Klucel (hydroxypropylcellulose) (HPC) 95 % of control | dose: 300.0 mg/kg/injection, schedule: Q04DX003 (ip), vehicle: Klucel (hydroxypropylcellulose) (HPC) 103 % of control
